Common to all, as to type: cell-based
Experiment [1] concerns amiloride-sensitive sodium conductance (ENaC). In words: Whole-cell patch clamp of rabbit collecting duct principal cells. The note with it: for mean current measured at EK+ (−80 mV): statistical analysis, aldosterone, then vasopressin, then amiloride. The method, then: (§1) Collecting ducts were manually dissected from sagittal slices obtained from 50 gram Sprague Dawley rats and 0.5 Kg New Zealand White rabbits. The dissected collecting ducts were suspended in RPMI 1640 culture medium supplemented with 1.5 mg/ml collagenase A (Boehringer Mannheim, Mannhein, Germany). The collecting ducts were enzymatically digested for 1.5 hours to isolate individual cells. The digested cells were washed in serum-free RPMI and placed in a perfusion chamber mounted on the stage of an inverted microscope. The whole-cell patch clamp configuration was established and initial current measurements were made in un-supplemented RPMI. […] To block the cytosolic mineralocorticoid receptor, some cells were suspended in RPMI supplemented with spironolactone for 1 hour prior to whole-cell patch clamping.
Studies were conducted using both whole cell patch clamp and single channel patch clamp techniques. Whole-cell clamped rabbit principal cells were exposed to 100 nM aldosterone. […] No cells failed both tests. […] ENa+ was approximately +60 mV with the ionic gradients present. The activated current was carried exclusively by sodium. In a separate set of experiments rabbit principal cells were re-suspended in RPMI supplemented with 1 μM spironolactone for 1 hour prior to use for whole-cell patch clamp. This concentration is sufficient to inhibit completely the mineralocorticoid receptor.
In general terms: Patch clamp records ionic current or voltage across a cell membrane.

The target in experiment [2] is T1, amiloride-sensitive sodium conductance (ENaC) (Rattus norvegicus, UniProt P37089+P37090+P37091).
T1 construct: Collecting ducts were manually dissected from sagittal slices obtained from 50 gram Sprague Dawley rats and 0.5 Kg New Zealand White rabbits; from tissue; host or cells: principal cells isolated from kidney collecting ducts of Sprague Dawley rats
T1 sequence (P37089 1-698): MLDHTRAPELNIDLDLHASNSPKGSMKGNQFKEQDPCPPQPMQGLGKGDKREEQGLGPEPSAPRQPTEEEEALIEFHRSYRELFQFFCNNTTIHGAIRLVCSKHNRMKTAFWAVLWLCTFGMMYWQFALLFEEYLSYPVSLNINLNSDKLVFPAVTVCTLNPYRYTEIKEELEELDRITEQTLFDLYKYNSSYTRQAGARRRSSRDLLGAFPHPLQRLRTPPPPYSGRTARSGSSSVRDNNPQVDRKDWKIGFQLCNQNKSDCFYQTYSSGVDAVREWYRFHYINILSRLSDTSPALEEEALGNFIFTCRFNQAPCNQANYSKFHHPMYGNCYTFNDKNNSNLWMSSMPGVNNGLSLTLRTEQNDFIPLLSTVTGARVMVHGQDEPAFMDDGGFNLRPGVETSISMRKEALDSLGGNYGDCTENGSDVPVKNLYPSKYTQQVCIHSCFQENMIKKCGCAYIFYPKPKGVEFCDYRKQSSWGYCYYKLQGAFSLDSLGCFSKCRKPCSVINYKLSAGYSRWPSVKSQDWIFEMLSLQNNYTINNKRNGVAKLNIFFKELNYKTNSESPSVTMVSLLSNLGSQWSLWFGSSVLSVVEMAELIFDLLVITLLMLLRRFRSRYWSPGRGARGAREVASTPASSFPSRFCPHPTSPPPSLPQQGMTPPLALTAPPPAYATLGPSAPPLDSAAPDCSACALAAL
T1 sequence (P37090 1-638): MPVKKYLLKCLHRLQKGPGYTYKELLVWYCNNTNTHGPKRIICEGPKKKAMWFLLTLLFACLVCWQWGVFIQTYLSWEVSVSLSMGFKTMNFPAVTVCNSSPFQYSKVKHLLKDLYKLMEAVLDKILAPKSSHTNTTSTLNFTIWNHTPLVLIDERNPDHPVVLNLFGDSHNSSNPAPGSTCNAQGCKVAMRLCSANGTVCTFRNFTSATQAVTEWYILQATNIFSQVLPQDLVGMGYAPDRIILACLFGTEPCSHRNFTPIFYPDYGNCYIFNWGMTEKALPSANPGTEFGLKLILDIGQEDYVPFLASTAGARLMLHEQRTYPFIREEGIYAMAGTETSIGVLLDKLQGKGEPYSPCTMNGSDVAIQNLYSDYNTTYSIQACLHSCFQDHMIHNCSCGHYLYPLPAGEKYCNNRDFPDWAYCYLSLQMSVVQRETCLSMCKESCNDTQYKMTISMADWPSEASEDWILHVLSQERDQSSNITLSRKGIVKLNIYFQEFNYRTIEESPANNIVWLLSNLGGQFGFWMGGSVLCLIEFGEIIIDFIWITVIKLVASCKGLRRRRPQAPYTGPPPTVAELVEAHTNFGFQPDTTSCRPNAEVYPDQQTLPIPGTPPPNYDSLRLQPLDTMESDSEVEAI
T1 sequence (P37091 1-650): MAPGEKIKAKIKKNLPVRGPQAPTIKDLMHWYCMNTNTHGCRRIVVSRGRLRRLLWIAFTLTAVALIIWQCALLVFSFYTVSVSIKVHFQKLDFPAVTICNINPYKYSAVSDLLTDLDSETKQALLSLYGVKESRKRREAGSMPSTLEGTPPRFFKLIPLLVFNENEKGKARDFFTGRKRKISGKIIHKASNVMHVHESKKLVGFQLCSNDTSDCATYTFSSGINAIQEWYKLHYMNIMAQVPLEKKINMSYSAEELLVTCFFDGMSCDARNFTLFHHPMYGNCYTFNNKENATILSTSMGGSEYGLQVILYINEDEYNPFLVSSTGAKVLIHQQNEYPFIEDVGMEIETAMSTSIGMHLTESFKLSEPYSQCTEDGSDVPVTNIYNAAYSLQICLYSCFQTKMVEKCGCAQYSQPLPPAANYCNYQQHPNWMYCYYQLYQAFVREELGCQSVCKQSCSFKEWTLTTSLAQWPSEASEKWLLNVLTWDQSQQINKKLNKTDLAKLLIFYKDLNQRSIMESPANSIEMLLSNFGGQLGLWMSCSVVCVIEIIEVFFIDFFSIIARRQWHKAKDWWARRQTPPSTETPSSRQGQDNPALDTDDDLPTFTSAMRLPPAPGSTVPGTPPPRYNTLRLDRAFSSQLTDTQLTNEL
As to the kind of experiment: Whole-cell patch clamp of rat collecting duct principal cells. The note with it: for mean current measured at EK+ (−80 mV): statistical analysis, then vasopressin, then amiloride. Here is the method:
as §1
The same protocol was carried out on rabbit principal cells.

For the next experiment, the target named is T2, ENaC (Homo sapiens, UniProt P37088+P51168+P51170).
T2 construct: Human and canine lymphocytes were isolated from peripheral blood samples by differential centrifugation over ficoll paque; endogenous in cells; host or cells: human peripheral blood lymphocytes
T2 sequence (P37088 1-669): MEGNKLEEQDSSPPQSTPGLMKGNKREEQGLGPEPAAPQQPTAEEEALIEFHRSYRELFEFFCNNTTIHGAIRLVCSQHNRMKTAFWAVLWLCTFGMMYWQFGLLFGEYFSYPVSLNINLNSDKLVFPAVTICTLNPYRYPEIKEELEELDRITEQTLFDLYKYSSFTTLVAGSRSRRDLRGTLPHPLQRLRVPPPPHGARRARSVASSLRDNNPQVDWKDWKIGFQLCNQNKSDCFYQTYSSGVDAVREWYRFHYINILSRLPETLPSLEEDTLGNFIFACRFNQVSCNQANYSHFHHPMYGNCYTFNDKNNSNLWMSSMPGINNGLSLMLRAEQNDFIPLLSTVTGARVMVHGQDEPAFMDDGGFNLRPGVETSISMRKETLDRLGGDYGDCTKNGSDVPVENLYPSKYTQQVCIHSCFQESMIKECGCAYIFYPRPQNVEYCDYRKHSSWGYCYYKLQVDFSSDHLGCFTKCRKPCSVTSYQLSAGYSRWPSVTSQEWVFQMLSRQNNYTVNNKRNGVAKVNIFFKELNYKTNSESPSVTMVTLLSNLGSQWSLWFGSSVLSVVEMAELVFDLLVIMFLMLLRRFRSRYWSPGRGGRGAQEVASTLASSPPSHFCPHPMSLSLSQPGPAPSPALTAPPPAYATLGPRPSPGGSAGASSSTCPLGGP
T2 sequence (P51168 1-640): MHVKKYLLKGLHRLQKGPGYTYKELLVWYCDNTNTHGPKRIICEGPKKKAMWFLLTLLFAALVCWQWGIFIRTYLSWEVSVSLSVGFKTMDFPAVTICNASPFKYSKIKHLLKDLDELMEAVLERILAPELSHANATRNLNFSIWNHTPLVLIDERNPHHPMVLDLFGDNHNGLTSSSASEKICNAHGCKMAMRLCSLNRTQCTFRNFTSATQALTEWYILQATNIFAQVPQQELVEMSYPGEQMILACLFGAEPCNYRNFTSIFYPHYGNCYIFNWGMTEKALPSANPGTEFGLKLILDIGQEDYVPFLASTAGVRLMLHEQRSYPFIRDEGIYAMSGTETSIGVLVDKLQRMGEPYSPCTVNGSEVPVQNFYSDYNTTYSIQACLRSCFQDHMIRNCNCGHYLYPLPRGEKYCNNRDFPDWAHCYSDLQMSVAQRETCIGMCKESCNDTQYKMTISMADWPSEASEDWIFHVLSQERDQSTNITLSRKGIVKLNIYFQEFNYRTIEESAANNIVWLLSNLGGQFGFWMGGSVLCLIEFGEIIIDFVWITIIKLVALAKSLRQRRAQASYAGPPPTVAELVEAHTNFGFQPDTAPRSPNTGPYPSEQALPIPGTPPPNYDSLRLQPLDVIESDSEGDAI
T2 sequence (P51170 1-649): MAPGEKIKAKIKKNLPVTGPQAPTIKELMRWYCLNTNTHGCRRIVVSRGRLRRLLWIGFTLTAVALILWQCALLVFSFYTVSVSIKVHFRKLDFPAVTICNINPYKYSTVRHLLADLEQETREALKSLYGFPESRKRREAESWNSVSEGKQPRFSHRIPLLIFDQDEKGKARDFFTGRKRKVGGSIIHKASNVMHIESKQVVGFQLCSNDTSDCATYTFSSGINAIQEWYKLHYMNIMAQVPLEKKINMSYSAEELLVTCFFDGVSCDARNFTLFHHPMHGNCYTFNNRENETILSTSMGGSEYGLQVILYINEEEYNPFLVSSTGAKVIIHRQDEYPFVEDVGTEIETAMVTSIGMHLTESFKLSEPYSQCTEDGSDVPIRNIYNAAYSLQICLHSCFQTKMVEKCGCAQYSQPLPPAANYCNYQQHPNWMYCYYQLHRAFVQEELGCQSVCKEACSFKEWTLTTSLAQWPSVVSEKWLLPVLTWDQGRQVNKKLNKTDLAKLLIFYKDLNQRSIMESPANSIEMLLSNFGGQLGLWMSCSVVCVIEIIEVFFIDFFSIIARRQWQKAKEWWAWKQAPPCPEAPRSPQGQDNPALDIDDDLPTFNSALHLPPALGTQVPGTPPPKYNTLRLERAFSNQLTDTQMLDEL
As to the kind of experiment: Single channel patch clamp (outside-out patches) of human lymphocytes. The method, then: Human and canine lymphocytes were isolated from peripheral blood samples by differential centrifugation over ficoll paque (Pharmacia Biotech, Uppsala, Sweden). The cells were washed and re-suspended in serum-free RPMI. Subsequently, suspended cells were placed in the perfusion chamber. Whole-cell patch clamp and testing of aldosterone were carried out using identical techniques and protocols as described for principal cells. Rabbit, rat and mouse lymphocytes were obtained by mincing sections of spleen and manually freeing the cells by agitation. The cell suspensions were then centrifuged over ficoll paque and treated identically to the lymphocytes obtained from peripheral blood. All procedures were carried out under the guidelines for animal use and with institutional board approval for human use.
The “ragged” morphology of the whole-cell currents in principal cells and lymphocytes has generated some concern about the identity of the channels that are activated by aldosterone. To address this concern, single channel characteristics of the sodium conductors expressed by human lymphocytes were studied.
To test the amiloride sensitivity of the single channels, outside-out patches were formed because amiloride only interacts with the outside surface of the channels. A “rundown” phenomena typical of ENaC in the inside-out patch experiments was noted.

As for `C[C@]12CCC(=O)C=C1CC[C@@H]1[C@@H]2[C@@H](O)C[C@]2(C=O)[C@@H](C(=O)CO)CC[C@@H]12` [aldosterone], the “effect on inward currents with mineralocorticoid receptor inhibition” value in experiment [1] (rabbit principal cells pre-treated with 1 μM spironolactone, 100 nM aldosterone) is “specifically activated the inward currents”. Besides, the “effect on inward currents at hyperpolarized membrane potential clamp voltages” value in experiment [1] (rabbit principal cells, 100 nM aldosterone in bath) is listed as “specific activation of the inward currents”. Further, the “mean current measured at EK+ (−80 mV)” value in experiment [1] (rabbit principal cells) is given as “significantly increased the current”; in experiment [2] (aldosterone), “did not alter the current”. In addition, in experiment [1] (rabbit principal cells, whole-cell clamp, ATP-supplemented pipette solution), the “time to aldosterone-stimulated ENaC activation” value was “within seconds”. Moreover, the “acute effect on principal cells” value in experiment [2] (aldosterone) is recorded as “no acute affect”. Also, on ENaC (cells treated with 100 nM aldosterone), the unitary conductance result is “unchanged”.

As to `NC(=O)CC[C@@H]1NC(=O)[C@H](Cc2ccccc2)NC(=O)[C@H](Cc2ccc(O)cc2)NC(=O)[C@@H](N)CSSC[C@@H](C(=O)N2CCC[C@H]2C(=O)N[C@@H](CCCN=C(N)N)C(=O)NCC(N)=O)NC(=O)[C@H](CC(N)=O)NC1=O` [vasopressin], the “mean current measured at EK+ (−80 mV)” value is on record as “had no additional effect” in experiment [1] (rabbit principal cells) and “increased it significantly” in experiment [2] (aldosterone). Also, the “further activation of inward currents after ENaC activation by aldosterone” value in experiment [1] (rabbit principal cells, vasopressin after aldosterone) was “did not activate the inward currents any further”. The “activation of amiloride sensitive inward currents” value in experiment [2] (250 nM vasopressin after aldosterone) is given as “acute specific activation of the amiloride sensitive inward currents”.

Regarding `CC(=O)S[C@@H]1CC2=CC(=O)CC[C@]2(C)[C@H]2CC[C@@]3(C)[C@@H](CC[C@@]34CCC(=O)O4)[C@H]12` [spironolactone], the “effect on inward currents” value in experiment [1] (rabbit principal cells, 1 μM spironolactone for 1 hour prior to whole-cell patch clamp) is “no effect on the inward currents”.

As to `N=C(N)NC(=O)c1nc(Cl)c(N)nc1N` [amiloride], in experiment [1] (rabbit principal cells, 2 μM amiloride in the continued presence of aldosterone), the “inhibition of aldosterone-activated currents” value is on record as “inhibited completely”. The “mean current measured at EK+ (−80 mV)” value in experiment [1] (rabbit principal cells) was “returned the conductance to the basal level”; in experiment [2] (aldosterone), “restored the current to the basal level”. Besides, the single channel activity result is given as “completely abolished” on ENaC (amiloride 2 μM) and “virtually abolished” at ENaC (cells treated with 100 nM aldosterone, amiloride 2 μM final concentration in bath). Moreover, at ENaC (amiloride concentration close to IC50 ([…] nM)), the “inhibition of single channels” value is “Incomplete inhibitory action”.

The values are drawn from patent US6586416B2, “Methods of treatment using an epithelial sodium channel blocker and an inhibitor of the mineralocorticoid receptor” (priority 2001, dated 2003).
